Data taken from the supplement of paper PMC10307832.

Legend:
Test in all cases: relative viability (nuclei count vs DMSO), 5 days (fraction); higher = more cells survive
[1] = system: NCI-H1915
In short: (§1)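 Relative viability equals treated-well nuclei counts divided by vehicle-well nuclei counts. Counts came from 4× images of lung cancer cell lines grown in 1536-well plates for 5 days after pin-tool dosing on the day after seeding. Dosing used one drug alone or a fixed anchor-drug dose plus five library-drug doses (not always all listed) in √10 steps, and values are medians of duplicate plates.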

[2] = system: NCI-H2347
In short: as §1

[3] = system: NCI-H2126
In short: as §1

[4] = system: HCC-15
In short: as §1

[5] = system: NCI-H460
In short: as §1

[6] = system: HOP-62
In short: as §1

[7] = system: NCI-H1975
In short: as §1

[8] = system: PC-3 [JPC-3]
In short: as §1

[9] = system: A-427
In short: as §1

[10] = system: SW 1573
In short: as §1

[11] = system: NCI-H1792
In short: as §1

[12] = system: HCC-78
In short: as §1

[13] = system: NCI-H2342
In short: as §1

[14] = system: LC-2-ad
In short: as §1

[15] = system: RERF-LC-KJ
In short: as §1

[16] = system: LXF-289
In short: as §1

[17] = system: NCI-H358
In short: as §1

[18] = system: LOU-NH91
In short: as §1

[19] = system: NCI-H1755
In short: as §1

[20] = system: NCI-H1734
In short: as §1

[21] = system: NCI-H647
In short: as §1

[22] = system: SK-LU-1
In short: as §1

With `CC1(C)CCC(c2ccc(Cl)cc2)=C(CN2CCN(c3ccc(C(=O)NS(=O)(=O)c4ccc(N[C@H](CCN5CCOCC5)CSc5ccccc5)c(S(=O)(=O)C(F)(F)F)c4)cc3)CC2)C1` [Navitoclax] + Nc1ncn([C@H]2C[C@H](O)[C@@H](CO)O2)c(=O)n1 [Decitabine] (partner 2 µM) the relative viability ([1]; first compound 0.005 µM) was 0.263, the relative viability ([1]; first compound 0.01581 µM) was 0.242 and the relative viability ([1]; first compound 0.05 µM) was 0.274. For the same molecule, the relative viability ([1]; first compound 0.1581 µM) was 0.247, the relative viability ([1]; first compound 0.5 µM) was 0.25 and the relative viability ([2]; first compound 0.005 µM) was 0.668. For the same molecule, the relative viability ([2]; first compound 0.01581 µM) was 0.551, the relative viability ([2]; first compound 0.05 µM) was 0.574 and the relative viability ([2]; first compound 0.1581 µM) was 0.654. It also gave a relative viability ([2]; first compound 0.5 µM) of 0.582, a relative viability ([3]; first compound 0.005 µM) of 0.595 and a relative viability ([3]; first compound 0.01581 µM) of 0.647. It also gave a relative viability ([3]; first compound 0.05 µM) of 0.522, a relative viability ([3]; first compound 0.1581 µM) of 0.547 and a relative viability ([3]; first compound 0.5 µM) of 0.564. For the same molecule, the relative viability ([4]; first compound 0.005 µM) was 0.64, the relative viability ([4]; first compound 0.01581 µM) was 0.652 and the relative viability ([4]; first compound 0.05 µM) was 0.386. It also gave a relative viability ([4]; first compound 0.1581 µM) of 0.625, a relative viability ([4]; first compound 0.5 µM) of 0.411 and a relative viability ([5]; first compound 0.005 µM) of 0.481. The relative viability ([5]; first compound 0.01581 µM) was 0.523, the relative viability ([5]; first compound 0.05 µM) was 0.234 and the relative viability ([5]; first compound 0.1581 µM) was 0.411. The relative viability ([5]; first compound 0.5 µM) was 0.444, the relative viability ([6]; first compound 0.005 µM) was 0.22 and the relative viability ([6]; first compound 0.01581 µM) was 0.21. It also gave a relative viability ([6]; first compound 0.05 µM) of 0.173, a relative viability ([6]; first compound 0.1581 µM) of 0.191 and a relative viability ([6]; first compound 0.5 µM) of 0.205. It also gave a relative viability ([7]; first compound 0.005 µM) of 0.432, a relative viability ([7]; first compound 0.01581 µM) of 0.392 and a relative viability ([7]; first compound 0.05 µM) of 0.261. The relative viability ([7]; first compound 0.1581 µM) was 0.416, the relative viability ([7]; first compound 0.5 µM) was 0.29 and the relative viability ([8]; first compound 0.005 µM) was 0.922. It also gave a relative viability ([8]; first compound 0.01581 µM) of 0.876, a relative viability ([8]; first compound 0.05 µM) of 0.912 and a relative viability ([8]; first compound 0.1581 µM) of 0.758. The relative viability ([8]; first compound 0.5 µM) was 0.653, the relative viability ([9]; first compound 0.005 µM) was 0.607 and the relative viability ([9]; first compound 0.01581 µM) was 0.534. For the same molecule, the relative viability ([9]; first compound 0.05 µM) was 0.517, the relative viability ([9]; first compound 0.1581 µM) was 0.521 and the relative viability ([9]; first compound 0.5 µM) was 0.466. The relative viability ([10]; first compound 0.005 µM) was 0.498, the relative viability ([10]; first compound 0.01581 µM) was 0.683 and the relative viability ([10]; first compound 0.05 µM) was 0.387. For the same molecule, the relative viability ([10]; first compound 0.1581 µM) was 0.386, the relative viability ([10]; first compound 0.5 µM) was 0.364 and the relative viability ([11]; first compound 0.005 µM) was 0.488. The relative viability ([11]; first compound 0.01581 µM) was 0.644, the relative viability ([11]; first compound 0.1581 µM) was 0.525 and the relative viability ([11]; first compound 0.5 µM) was 0.447. The relative viability ([12]; first compound 0.005 µM) was 0.759, the relative viability ([12]; first compound 0.01581 µM) was 0.732 and the relative viability ([12]; first compound 0.05 µM) was 0.605. It also gave a relative viability ([12]; first compound 0.1581 µM) of 0.636, a relative viability ([12]; first compound 0.5 µM) of 0.798 and a relative viability ([13]; first compound 0.005 µM) of 0.799. For the same molecule, the relative viability ([13]; first compound 0.01581 µM) was 0.764, the relative viability ([13]; first compound 0.05 µM) was 0.653 and the relative viability ([13]; first compound 0.1581 µM) was 0.679. For the same molecule, the relative viability ([13]; first compound 0.5 µM) was 0.713, the relative viability ([14]; first compound 0.005 µM) was 0.793 and the relative viability ([14]; first compound 0.01581 µM) was 0.72. For the same molecule, the relative viability ([14]; first compound 0.05 µM) was 0.673, the relative viability ([14]; first compound 0.1581 µM) was 0.701 and the relative viability ([14]; first compound 0.5 µM) was 0.774. The relative viability ([15]; first compound 0.005 µM) was 0.834, the relative viability ([15]; first compound 0.01581 µM) was 0.55 and the relative viability ([15]; first compound 0.05 µM) was 0.669. The relative viability ([15]; first compound 0.1581 µM) was 0.733, the relative viability ([15]; first compound 0.5 µM) was 0.708 and the relative viability ([16]; first compound 0.005 µM) was 0.347. It also gave a relative viability ([16]; first compound 0.01581 µM) of 0.389, a relative viability ([16]; first compound 0.05 µM) of 0.349 and a relative viability ([16]; first compound 0.1581 µM) of 0.349. The relative viability ([16]; first compound 0.5 µM) was 0.428, the relative viability ([17]; first compound 0.005 µM) was 0.234 and the relative viability ([17]; first compound 0.01581 µM) was 0.225. The relative viability ([17]; first compound 0.05 µM) was 0.206, the relative viability ([17]; first compound 0.1581 µM) was 0.213 and the relative viability ([17]; first compound 0.5 µM) was 0.187. For the same molecule, the relative viability ([18]; first compound 0.005 µM) was 0.798, the relative viability ([18]; first compound 0.01581 µM) was 0.88 and the relative viability ([18]; first compound 0.05 µM) was 0.79. For the same molecule, the relative viability ([18]; first compound 0.1581 µM) was 0.711, the relative viability ([18]; first compound 0.5 µM) was 0.391 and the relative viability ([19]; first compound 0.005 µM) was 0.664. For the same molecule, the relative viability ([19]; first compound 0.01581 µM) was 0.727, the relative viability ([19]; first compound 0.05 µM) was 0.611 and the relative viability ([19]; first compound 0.1581 µM) was 0.677. It also gave a relative viability ([19]; first compound 0.5 µM) of 0.697, a relative viability ([20]; first compound 0.005 µM) of 0.51 and a relative viability ([20]; first compound 0.01581 µM) of 0.512. For the same molecule, the relative viability ([20]; first compound 0.1581 µM) was 0.5, the relative viability ([20]; first compound 0.5 µM) was 0.465 and the relative viability ([21]; first compound 0.005 µM) was 0.403. The relative viability ([21]; first compound 0.01581 µM) was 0.413, the relative viability ([21]; first compound 0.05 µM) was 0.409 and the relative viability ([21]; first compound 0.1581 µM) was 0.275. For the same molecule, the relative viability ([21]; first compound 0.5 µM) was 0.32, the relative viability ([22]; first compound 0.005 µM) was 0.577 and the relative viability ([22]; first compound 0.01581 µM) was 0.577. For the same molecule, the relative viability ([22]; first compound 0.05 µM) was 0.389, the relative viability ([22]; first compound 0.1581 µM) was 0.609 and the relative viability ([22]; first compound 0.5 µM) was 0.469.
